Values of other authors in patent US20190350224A1, “METHOD FOR IMPROVING MUSCLE FORCE OR PHYSICAL FUNCTION” (University of Washington, priority 2018, published 2019).

Details: against reactive oxygen species

CC1=C(/C=C/C(C)=C/C=C/C(C)=C/C=C/C=C(C)/C=C/C=C(C)/C=C/C2=C(C)C(=O)C(O)CC2(C)C)C(C)(C)CC(O)C1=O (stereo not drawn) [astaxanthin, 3,3′-dihydroxy-β,β-carotene-4,4′-dione]
antioxidant action relative to n-carotene: about 40 times
